From US4374138A, “Antibacterial amide compounds, compositions, and methods of use” (Warner-Lambert Company, priority 1981, dated 1983)
Converted amounts (≈) assume the structure as drawn.

Legend:
Assay type in all cases: cell-based
Pseudo. Aeru UI-18 = experiment: Minimal Inhibitory Concentration, Pseudo. Aeru UI-18
E. Coli Brig = experiment: Minimal Inhibitory Concentration, E. Coli Brig; conditions: Escherichia coli
Entero C. IMM-11 = experiment: Minimal Inhibitory Concentration, Entero C. IMM-11
Serr. Mar. IMM-16 = experiment: Minimal Inhibitory Concentration, Serr. Mar. IMM-16
Prot. Vulg. 1810 = experiment: Minimal Inhibitory Concentration, Prot. Vulg. 1810
Pseudo. Aeru BRK = experiment: Minimal Inhibitory Concentration, Pseudo. Aeru BRK
Pseudo. Aeru 28 = experiment: Minimal Inhibitory Concentration, Pseudo. Aeru 28
Staph Aureus UC-76 = experiment: Minimal Inhibitory Concentration, Staph Aureus UC-76; conditions: Staphylococcus aureus, UC76
Klebs. Pneu. MGH-2 = experiment: Minimal Inhibitory Concentration, Klebs. Pneu. MGH-2
E. Coli Vogel = experiment: Minimal Inhibitory Concentration, E. Coli Vogel; conditions: Escherichia coli

SMILES	MIC (Pseudo. Aeru UI-18) [µg/mL]	MIC (E. Coli Brig) [µg/mL]	MIC (Entero C. IMM-11) [µg/mL]	MIC (Serr. Mar. IMM-16) [µg/mL]	MIC (Prot. Vulg. 1810) [µg/mL]	MIC (Pseudo. Aeru BRK) [µg/mL]	MIC (Pseudo. Aeru 28) [µg/mL]	MIC (Staph Aureus UC-76) [µg/mL]	MIC (Klebs. Pneu. MGH-2) [µg/mL]	MIC (E. Coli Vogel) [µg/mL]
CCOC(=O)CNC(=O)Nc1ccc2[nH]c(=O)c(C(=O)N[C@@H](C(=O)N[C@@H]3C(=O)N4[C@@H]3SC(C)(C)[C@@H]4C(=O)O)c3ccc(O)cc3)cc2c1	3.1 (≈ 4.55 µM)	12.5 (≈ 18.4 µM)	12.5 (≈ 18.4 µM)	12.5 (≈ 18.4 µM)	6.3 (≈ 9.26 µM)	3.1 (≈ 4.55 µM)	3.1 (≈ 4.55 µM)	1.6 (≈ 2.35 µM)	12.5 (≈ 18.4 µM)	6.3 (≈ 9.26 µM)
CCNC(=O)Nc1ccc2[nH]c(=O)c(C(=O)N[C@@H](C(=O)N[C@@H]3C(=O)N4[C@@H]3SC(C)(C)[C@@H]4C(=O)O)c3ccc(O)cc3)cc2c1 [A CH3 CH2, N-[6-[[(Ethylamino)carbonyl]amino]-1,2-dihydro-2-oxo-3-quinolinylcarbonyl]amoxicillin]	1.6 (≈ 2.57 µM)	3.1 (≈ 4.98 µM)	3.1 (≈ 4.98 µM)	6.3 (≈ 10.1 µM)	1.6 (≈ 2.57 µM)	1.6 (≈ 2.57 µM)	0.4 (≈ 0.642 µM)	0.4 (≈ 0.642 µM)	6.3 (≈ 10.1 µM)	1.6 (≈ 2.57 µM)
CCNC(=O)Nc1ccc2[nH]cc(C(=O)N[C@@H](C(=O)N[C@@H]3C(=O)N4[C@@H]3SC(C)(C)[C@@H]4C(=O)O)c3ccc(O)cc3)c(=O)c2c1 [B CH3 CH2, N-[6-[[(Ethylamino)carbonyl]amino]-1,4-dihydro-4-oxo-3-quinolinylcarbonyl]amoxicillin]	3.1 (≈ 4.98 µM)	6.3 (≈ 10.1 µM)	3.1 (≈ 4.98 µM)	1.6 (≈ 2.57 µM)	0.8 (≈ 1.28 µM)	0.4 (≈ 0.642 µM)	0.8 (≈ 1.28 µM)	0.8 (≈ 1.28 µM)	3.1 (≈ 4.98 µM)	0.4 (≈ 0.642 µM)

The remaining molecules from weak to strong by MIC (Pseudo. Aeru UI-18), led by results:

MIC (Pseudo. Aeru UI-18) [µg/mL]	MIC (E. Coli Brig) [µg/mL]	MIC (Entero C. IMM-11) [µg/mL]	MIC (Serr. Mar. IMM-16) [µg/mL]	MIC (Prot. Vulg. 1810) [µg/mL]	MIC (Pseudo. Aeru BRK) [µg/mL]	MIC (Pseudo. Aeru 28) [µg/mL]	MIC (Staph Aureus UC-76) [µg/mL]	MIC (Klebs. Pneu. MGH-2) [µg/mL]	MIC (E. Coli Vogel) [µg/mL]	SMILES
1.6 (≈ 2.35 µM)	6.3 (≈ 9.27 µM)	3.1 (≈ 4.56 µM)	12.5 (≈ 18.4 µM)	1.6 (≈ 2.35 µM)	1.6 (≈ 2.35 µM)	1.6 (≈ 2.35 µM)	0.8 (≈ 1.18 µM)	12.5 (≈ 18.4 µM)	1.6 (≈ 2.35 µM)	CCNC(=O)CNC(=O)Nc1ccc2[nH]c(=O)c(C(=O)N[C@@H](C(=O)N[C@@H]3C(=O)N4[C@@H]3SC(C)(C)[C@@H]4C(=O)O)c3ccc(O)cc3)cc2c1
1.6 (≈ 2.46 µM)	6.3 (≈ 9.67 µM)	6.3 (≈ 9.67 µM)	12.5 (≈ 19.2 µM)	1.6 (≈ 2.46 µM)	0.8 (≈ 1.23 µM)	0.8 (≈ 1.23 µM)	0.8 (≈ 1.23 µM)	12.5 (≈ 19.2 µM)	1.6 (≈ 2.46 µM)	CC1(C)S[C@@H]2[C@H](NC(=O)[C@H](NC(=O)c3cc4cc(NC(=O)NCC(N)=O)ccc4[nH]c3=O)c3ccc(O)cc3)C(=O)N2[C@H]1C(=O)O
